# Data as given in patent US20240052012A1, “PLATELET ALPHA-GRANULES FOR DELIVERY OF MULTIPLE PROTEINS” (CSTS Health Care Inc., priority 2021, published 2024).
# Ends that are not written are not given here.
# Experiments:
# [1] = tested on: platelets (platelet rich plasma); assay: FACS analysis of growth factor uptake by platelets; format: cell-based; details: pretreatment of platelet rich plasma; FGF, PF4, VEGF, TPO; all but thrombopoietin; FIG. 15B
# Source text: (Inh=inhibitor added, PF4 receptor, a splice variant of the chemokine receptor CXCR3, known as CXCR3B).
# platelet α-granule = assay: Confocal microscopy, loading of Alexa647-PAL1 conjugated Lucitanib; format: cell-based; details: one hour at 37° C.; FIG. 26A
# Experimental: Platelets were co-incubated with Alexa647-labled Lucitanib or with Alexa647-PAL1 conjugated Lucitanib for one hour at 37° C. The platelets were then spun for 10-minutes at 800 g, fixed in 2% paraformaldehyde, and settled onto glass coverslips. After permeabilization, immunofluorescence staining was performed against PF4 in platelets and further stained with Alexa568-secondary antibody. The images were collected through a Nikon-Al laser-scanning microscope equipped with a 60× oil objective. FIG. 26A includes representative images in which immunofluorescence for PF4 was shown in red and Alexa647 was shown in blue. […] FIG. 26B is a graph showing the averaged intensities of Alexa647 channel for >800 ROIs in each group were analyzed using ImageJ and the error bar is the standard deviation of the mean.
# [2] = tested on: alpha granules of platelets; assay: Confocal microscopy, colocalization of Alexa647-labeled peptides with PF4; format: cell-based; details: for loading into alpha granules of platelets (Alexa647 intensities per ROI): ROIs selected on PF4 intensity, FIG. 2B
# Experimental: To confirm that the Alexa647-labeled GAG-binding peptides were loaded into alpha granules of platelets, confocal microscopy was used. The platelets that were centrifuged in the experiments of FIG. 1A and FIG. 1B, were fixed in 2% paraformaldehyde and settled onto glass coverslips. After permeabilization, immunofluorescence staining was performed against PF4, which is a marker for alpha granules of platelets. Platelets were stained with Alexa568-secondary antibody. Images were collected through a Nikon-A1 laser-scanning microscope equipped with a 60× oil objective lens.
# FIG. 2A are representative images with PF4 staining shown in red (left column) and the Alexa647 signal (from the free Alexa647, Alexa647-labeled GAG-binding peptide, or Alexa647-labeled CFL; middle column) shown in purple. Images were only adjusted for brightness and contrast for display. n>5 images were acquired for each experiment and regions of interest (ROIs) were selected based on PF4 intensity.
# The Alexa647 intensities for each ROI were measured using ImageJ and plotted in box and whisker graph using Prism 8.
# isolated platelets = assay: Platelet loading of Alexa647-labeled peptides, decrease in fluorescence in supernatant; format: cell-based; details: for fluorescence of supernatant, complete versus loaded measurements (platelet loading): Alexa647-labeled peptides co-incubated with isolated platelets at 37° C. for one hour, FIG. 1A; for loading of attached cargo into platelets, loaded condition normalized to its complete condition: FIG. 1B
# Experimental: Alexa647-labeled peptides or Alexa647 alone were co-incubated with isolated platelets at 37° C. for one hour to allow for platelet loading. The respective platelet-loading ability was indicated by a decrease in fluorescence in supernatant following the incubation. For controls, identical experiments were performed without the incubation period (noted as “complete” in the figure). Platelets following co-incubation were then centrifuged at 800 g for 10-minutes to separate platelets from supernatant (noted as “loaded” in the figure).
# FIG. 1B represents the data in FIG. 1A normalized for each peptide experiment, i.e., normalization of a loaded condition to its complete condition.
# [3] = Isothermal titration calorimetry (ITC) of GAG-binding peptides; details: for affinity for chondroitin sulfate A (dissociation constants by ITC): 22° C., 5 mM Tris-HCl pH 7.35, 1% DMSO, FIG. 3E, 3F
# Experimental: FIG. 3A is a schematic depicting the isothermal titration calorimetry (ITC) experiments performed in this example. Here, chondroitin sulfate A (CSA) was used to test affinities of illustrative GAG-binding peptides for glycosaminoglycan. 3 mM CSA was loaded into a syringe and CSA was titrated into the sample cell withholding a 0.25 mM solution of GAG-binding peptide or a charge-free ligand (CFL), which served as a negative control. Temperature was set at 22° C., the buffer was 5 mM Tris-HCl (pH 7.35), and 1% DMSO.
# FIG. 3B to FIG. 3D show graphical representations of ITC dissociation kinetics for CSA titrated into cells withholding PAL1 (FIG. 3B), PAL2 (FIG. 3C), and CFL (FIG. 3D).
# The data obtained during the experiments of FIG. 3B and FIG. 3C were used to determine dissociation constants for the CSA and GAG-binding peptide interactions; these were determined through titration curve fitting using sequential binding model.
# (§1) Additionally, the binding affinities for the two illustrative GAG-binding peptides, PAL1 and PAL2, to Heparan Sulfate (HS) and Chondroitin Sulfate (CSA) was determined using affinity chromatography. […] The dissociation constants were measured using ITC, the higher it is, the looser the binding is. […] The binding was measured by the elution volume on a Hi-Trap Heparin column attached to a FPLC system. The later the peak occurs, the tighter the binding is. In FIG. 4A, the peptide amino acid sequences including the control peptide (CFL) and the two PALs (PAL1 and PAL2) are shown.
# [4] = tested on: alpha-granule subsets of platelets; assay: Confocal microscopy, subcellular localization of Alexa647-labelled PAL1 and PAL2 against VEGF and PF4; format: cell-based; details: Alexa647-labelled peptides, FIG. 24; for loading into alpha-granule subsets: VEGF and PF4 markers; for preferred colocalization with alpha-granule subset marker: VEGF/PAL and PF4/PAL merged
# Experimental: FIG. 24 are immunofluorescent images showing that PAL1 and PAL2 have different subcellular localizations, i.e., have a preference for distinct alpha-granules. Using VEGF as the marker of one alpha-granule set (green) and PF4 as the marker of the second alpha-granule set (red), the subcellular localization of Alexa647-labelled PAL1 and PAL2 (blue) were recorded on Nikon-Al confocal microscope.
# The images FIG. 24 were acquired using Nikon-A1 confocal microscope equipped with a 60× oil immersed objective. PAL1 and PAL2 partially colocalize with both subsets of the alpha-granules as indicated by the cyan and purple pixels in the merged images. To quantify the difference between PAL1 and PAL2, the fractionation of loaded platelets were performed
# EOMA cells and platelets = assay: Immunofluorescence, aggregation of platelet PF4 on EOMA cells; format: cell-based, murine; details: FIG. 22
# Experimental: Platelet factor 4 (PF4) has one of the highest affinities for HS occurring in nature and can occupy GAG sites and displace other HS binding growth factors. As such, PF4 acts as an inhibitor of tumor growth. FIG. 22 are immunofluorescent images showing that platelets form a provisional matrix that can exchange proteins with endothelial cells upon tumor activation. Murine hemangioendothelioma cells (EOMA) cells were grown in standard media (DMEM+10% FBS), and normal platelets were added. Under normal conditions (top row), PF4 (the main content of platelets α-granules; green and left column) is seen at the periphery (i.e., along the membrane) of the EOMA cells as the platelets aggregate along the cell membrane. Heparan sulphate (red, second from left column) is distributed throughout the membranous surface of the endothelial cell, and DAPI (blue, second from right column) is the nuclear counterstain. In absence of tumor conditioned media, thrombin or other activators of endothelial cell, there is no clumping and aggregation of the platelets. […] However, upon incubation of EOMA cells and platelets in presence of tumor conditioned media (second row), the expression of HS is increased, and a thick platelet provisional matrix is formed as shown by the aggregation of PF4 on the HS rich surface EOMA cell; this platelet provisional matrix is used by EOMA cells for growth. […]
# [5] = tested on: murine hemangioendothelioma cells (EOMA); assay: Sequestration of bFGF by GAGs on EOMA cells; format: cell-based; details: monolayer culture, standard or tumor conditioned media; FIG. 20
# Source text: FIG. 20 is a graph showing sequestration of growth factors by glycosaminoglycans (GAGs) on the surface of murine hemangioendothelioma cells (EOMA). Here, the cells growing in monolayer tissue culture conditions either under standard media conditions or in surrogate tumor environment using tumor conditioned media, sequester bFGF onto the GAGS on platelets and endothelial cells, and thus remove it from the supernatant. […] Values represent means and SE of 5 wells.
# [6] = Affinity chromatography of peptides, Hi-Trap Heparin column on FPLC; format: binding; details: PAL1 versus PAL2; FIG. 4C
# Experimental: as §1
compound,measurement,setting,value
Cc1cc(N)c2cc(NC(=O)Nc3ccc4nc(C)cc(N)c4c3)ccc2n1 [surfen],growth factor uptake by platelets,[1],significantly inhibits growth factor uptake by platelets
"Alexa647-labelled PAL1 conjugated-Lucitanib: Lucitanib conjugated with Alexa647-labelled PAL1 (SEQ ID NO: 1) (ERRIWFPYRRF; also: Alexa647 label, conjugated to Lucitanib, sites not given here)",colocalization with PF4 / loading into α-granules,platelet α-granule,colocalization
"EGGIWFPYGGF [CFL, reference compound]",loading into alpha granules of platelets (Alexa647 intensities per ROI),[2],do not load into platelets
same,colocalization of alpha granule marker PF4 and Alexa647 signal,"[2]; merged images, FIG. 2A",Co-localization was not observed
same,"fluorescence of supernatant, complete versus loaded measurements (platelet loading)",isolated platelets,did not change
same,"loading of attached cargo into platelets, loaded condition normalized to its complete condition",isolated platelets,unable to direct loading of the cargo into platelets
ERRIWFPYRRF [PAL1],affinity for chondroitin sulfate A (dissociation constants by ITC),[3],high affinity
same,relative binding to CSA (dissociation constants by ITC),"[3]; PAL1 versus PAL2, FIG. 4B",bind CSA tighter than PAL2
same,loading into alpha-granule subsets,[4],loaded to both the subsets of alpha-granules
same,preferred colocalization with alpha-granule subset marker,[4],colocalized more to the VEGF subset
same,loading into alpha granules of platelets (Alexa647 intensities per ROI),[2],facilitates loading of an attached cargo into alpha granules of platelets
same,"fluorescence of supernatant, complete versus loaded measurements (platelet loading)",isolated platelets,decrease in absorbance
same,"loading of attached cargo into platelets, loaded condition normalized to its complete condition",isolated platelets,facilitates loading of an attached cargo into platelets
Heparin,aggregation of platelet PF4 on the HS rich surface of EOMA cells,EOMA cells and platelets,inhibited
same,sequestration of bFGF from the supernatant onto GAGs,[5],further enhance the phenomenon
RFRWPYRIREF [PAL2],affinity for chondroitin sulfate A (dissociation constants by ITC),[3],high affinity
same,loading into alpha-granule subsets,[4],loaded to both the subsets of alpha-granules
same,preferred colocalization with alpha-granule subset marker,[4],colocalized more to the PF4 channel
same,loading into alpha granules of platelets (Alexa647 intensities per ROI),[2],facilitates loading of an attached cargo into alpha granules of platelets
same,relative binding to HS (elution volume on Hi-Trap Heparin column),[6],binds HS tighter than PAL1
same,"fluorescence of supernatant, complete versus loaded measurements (platelet loading)",isolated platelets,decrease in absorbance
same,"loading of attached cargo into platelets, loaded condition normalized to its complete condition",isolated platelets,facilitates loading of an attached cargo into platelets
thrombin,aggregation of platelet PF4 on the HS rich surface of EOMA cells,EOMA cells and platelets,reproduced
same,sequestration of bFGF from the supernatant onto GAGs,[5],released from the GAGs into the supernatant
